Results taken from patent publication US20180000085A1, “USE OF PICOLINAMIDE COMPOUNDS WITH FUNGICIDAL ACTIVITY” (DOW AGROSCIENCES LLC, priority 2014, published 2018).

Experiments:
Zymoseptoria tritici = test: Leaf blotch of wheat (SEPTTR) disease control on wheat seedlings; type: in vivo; parameters: key to SEPTTR 1DP, HV activity at 100 ppm (% control rating) / SEPTTR 3DC, HV activity at 100 ppm (% control rating) / SEPTTR disease control, 1DP / SEPTTR disease control, 3DC / SEPTTR 1DP disease control rating, HV activity / SEPTTR 3DC disease control rating, HV activity / SEPTTR 3DC, LV activity at 125.1 g/H (% Control rating) / SEPTTR 1DP, LV activity at 125.1 g/H (% Control rating) / SEPTTR 1DP disease control rating, LV activity at 125.1 g/H / SEPTTR 3DC disease control rating, LV activity at 125.1 g/H / SEPTTR 3DC disease control rating, HV activity at 100 ppm / SEPTTR 1DP disease control rating, HV activity at 100 ppm / HV activity at 100 ppm SEPTTR 3DC (disease control rating) / HV activity at 100 ppm SEPTTR 1DP (disease control rating) / LV activity at 125.1 g/H SEPTTR 1DP (disease control rating) / LV activity at 125.1 g/H SEPTTR 3DC (disease control rating): A: > 80; B: ≤ 80; C: Not Tested; D: No Activity Observed in the Reported Assay; conditions: for SEPTTR 1DP disease control rating, HV activity / SEPTTR 3DC disease control rating, HV activity: HV application at 100 ppm; for SEPTTR 1DP, LV activity at 125.1 g/H (% Control rating) / SEPTTR 3DC, LV activity at 125.1 g/H (% Control rating) / SEPTTR 1DP disease control rating, LV activity at 125.1 g/H / SEPTTR 3DC disease control rating, LV activity at 125.1 g/H: low volume application
Puccinia triticina = test: Wheat brown rust (PUCCRT) disease control on wheat seedlings; type: in vivo; parameters: key to PUCCRT 3DC, HV activity at 100 ppm (% control rating) / PUCCRT disease control, 3DC / PUCCRT 1DP disease control rating, HV activity / PUCCRT 3DC disease control rating, HV activity / PUCCRT 3DC, LV activity at 125.1 g/H (% Control rating) / PUCCRT 1DP, LV activity at 125.1 g/H (% Control rating) / PUCCRT 3DC disease control rating, LV activity at 125.1 g/H / PUCCRT 1DP disease control rating, LV activity at 125.1 g/H / PUCCRT 3DC disease control rating, HV activity at 100 ppm / PUCCRT 1DP disease control rating, HV activity at 100 ppm / HV activity at 100 ppm PUCCRT 3DC (disease control rating) / LV activity at 125.1 g/H PUCCRT 1DP (disease control rating) / LV activity at 125.1 g/H PUCCRT 3DC (disease control rating): A: > 80; B: ≤ 80; C: Not Tested; D: No Activity Observed in the Reported Assay; conditions: for PUCCRT 1DP disease control rating, HV activity / PUCCRT 3DC disease control rating, HV activity: HV application at 100 ppm; for PUCCRT 1DP, LV activity at 125.1 g/H (% Control rating) / PUCCRT 3DC, LV activity at 125.1 g/H (% Control rating) / PUCCRT 1DP disease control rating, LV activity at 125.1 g/H / PUCCRT 3DC disease control rating, LV activity at 125.1 g/H: low volume application
[1] = 1 Day Protectant, wheat leaf blotch
[2] = 3 Day Curative, wheat leaf blotch
[3] = 1 Day Protectant, wheat brown rust
[4] = 3 Day Curative, wheat brown rust
[5] = HV application, 100 ppm, 1 Day Protectant
[6] = HV application, 100 ppm, 3 Day Curative
[7] = high volume application, 100 ppm, 1 day protectant
[8] = high volume application, 100 ppm, 3 day curative

Row | SMILES | SEPTTR 1DP disease control rating, HV activity (Zymoseptoria tritici; [1]) | SEPTTR 3DC disease control rating, HV activity (Zymoseptoria tritici; [2]) | PUCCRT 1DP disease control rating, HV activity (Puccinia triticina; [3]) | PUCCRT 3DC disease control rating, HV activity (Puccinia triticina; [4]) | SEPTTR 1DP, LV activity at 125.1 g/H (% Control rating) (Zymoseptoria tritici; 1 Day Protectant) | SEPTTR 3DC, LV activity at 125.1 g/H (% Control rating) (Zymoseptoria tritici; 3 Day Curative) | PUCCRT 1DP, LV activity at 125.1 g/H (% Control rating) (Puccinia triticina; 1 Day Protectant) | PUCCRT 3DC, LV activity at 125.1 g/H (% Control rating) (Puccinia triticina; 3 Day Curative) | further results
1 | CCC(CCC(C)C)C(OCC1CC1)C(C)OC(=O)C(C)NC(=O)c1nccc(OC)c1O (stereo not drawn) [Cmpd 318] | D | B (≤ 80) | D | B (≤ 80) | – | – | – | – | –
2 | CCC(CC)[C@@H](Oc1ccc(F)cc1)[C@H](C)OC(=O)[C@@H](NC(=O)c1nccc(OC)c1OCOC(C)=O)C(C)C [Cmpd 646] | – | – | – | – | B (≤ 80) | B (≤ 80) | A (> 80) | A (> 80) | SEPTTR 1DP, HV activity at 100 ppm (% control rating) (Zymoseptoria tritici; [5]): A (> 80); SEPTTR 3DC, HV activity at 100 ppm (% control rating) (Zymoseptoria tritici; [6]): A (> 80); PUCCRT 1DP, HV activity at 100 ppm (% control rating) (Puccinia triticina; [5]): A (> 80); PUCCRT 3DC, HV activity at 100 ppm (% control rating) (Puccinia triticina; [6]): A (> 80)
3 | CCC(CC)[C@@H](Oc1ccc(Cl)cc1Cl)[C@H](C)OC(=O)[C@@H](NC(=O)c1nccc(OC)c1O)C(C)C [Cmpd 408] | B (≤ 80) | D | B (≤ 80) | D | – | – | – | – | –
4 | COc1ccnc(C(=O)NC(C)C(=O)OC(C)COc2ccccc2)c1OCOC(C)=O (stereo not drawn) [Cmpd 525] | – | – | – | – | B (≤ 80) | D | D | B (≤ 80) | –
5 | COc1ccnc(C(=O)NC(C)C(=O)OC(C)C(Oc2ccc(F)cc2)C(C)C)c1O (stereo not drawn) [Cmpd 391] | A (> 80) | A (> 80) | A (> 80) | A (> 80) | – | – | – | – | –
6 | CCC(CC)C(Oc1cc(F)ccc1F)C(C)OC(=O)C(C)NC(=O)c1nccc(OC)c1O (stereo not drawn) [Cmpd 422] | A (> 80) | B (≤ 80) | A (> 80) | B (≤ 80) | – | – | – | – | –
7 | COc1ccnc(C(=O)N[C@@H](C)C(=O)O[C@@H](C)[C@H](Oc2ccc(Cl)cc2Cl)C(C)C)c1OCOC(=O)C(C)C [Cmpd 572] | – | – | – | – | B (≤ 80) | B (≤ 80) | A (> 80) | A (> 80) | –
8 | CCC(CC)C(Oc1cc(F)cc(Cl)c1)C(C)OC(=O)C(C)NC(=O)c1nccc(OC)c1O (stereo not drawn) [Cmpd 423] | A (> 80) | A (> 80) | A (> 80) | B (≤ 80) | – | – | – | – | –
9 | C=CC[C@@H](Oc1ccccc1)[C@H](C)OC(=O)[C@H](C)NC(=O)c1nccc(OC)c1OC(C)=O [Cmpd 695] | – | – | – | – | – | – | – | – | SEPTTR 1DP disease control rating, LV activity at 125.1 g/H (Zymoseptoria tritici; 1 day protectant): B (≤ 80); SEPTTR 3DC disease control rating, LV activity at 125.1 g/H (Zymoseptoria tritici; 3 day curative): B (≤ 80); PUCCRT 1DP disease control rating, LV activity at 125.1 g/H (Puccinia triticina; 1 day protectant): A (> 80); PUCCRT 3DC disease control rating, LV activity at 125.1 g/H (Puccinia triticina; 3 day curative): A (> 80)
10 | COc1ccnc(C(=O)NC(C)C(=O)OC(C)C(Oc2ccc(Cl)cc2Cl)c2ccccc2)c1OC(C)=O (stereo not drawn) [Cmpd 867] | – | – | – | – | – | – | – | – | SEPTTR 1DP disease control rating, LV activity at 125.1 g/H (Zymoseptoria tritici; 1 day protectant): A (> 80); SEPTTR 3DC disease control rating, LV activity at 125.1 g/H (Zymoseptoria tritici; 3 day curative): A (> 80); PUCCRT 1DP disease control rating, LV activity at 125.1 g/H (Puccinia triticina; 1 day protectant): A (> 80); PUCCRT 3DC disease control rating, LV activity at 125.1 g/H (Puccinia triticina; 3 day curative): B (≤ 80)
11 | CC[C@H](C)[C@H](NC(=O)c1nccc(OC)c1OCOC(C)=O)C(=O)O[C@@H](C)[C@H](Oc1ccc(C(F)(F)F)cc1)C(C)C [Cmpd 620] | – | – | – | – | D | B (≤ 80) | B (≤ 80) | B (≤ 80) | –
12 | CCC[C@@H](Oc1ccc(C)cc1Cl)[C@H](C)OC(=O)[C@H](C)NC(=O)c1nccc(OC)c1O [Cmpd 999] | – | – | – | – | – | – | – | – | SEPTTR 1DP disease control rating, HV activity at 100 ppm (Zymoseptoria tritici; [7]): B (≤ 80); SEPTTR 3DC disease control rating, HV activity at 100 ppm (Zymoseptoria tritici; [8]): B (≤ 80); PUCCRT 1DP disease control rating, HV activity at 100 ppm (Puccinia triticina; [7]): A (> 80); PUCCRT 3DC disease control rating, HV activity at 100 ppm (Puccinia triticina; [8]): A (> 80)
13 | CCC(CC)[C@@H](Oc1ccc(Cl)cc1Cl)[C@H](C)OC(=O)[C@H](C)NC(=O)c1nccc(OC)c1OCOC(C)=O [Cmpd 590] | – | – | – | – | B (≤ 80) | B (≤ 80) | A (> 80) | B (≤ 80) | –
14 | CCC(CC)[C@@H](Oc1cccc(-c2ccccc2)c1)[C@H](C)OC(=O)[C@@H](NC(=O)c1nccc(OC)c1O)C(C)C [Cmpd 413] | B (≤ 80) | D | B (≤ 80) | D | – | – | – | – | –
15 | CCCO[C@@H](C(C)C)[C@H](C)OC(=O)[C@H](C)NC(=O)c1nccc(OC)c1OCOC(C)=O [Cmpd 850] | – | – | – | – | – | – | – | – | SEPTTR 1DP disease control rating, LV activity at 125.1 g/H (Zymoseptoria tritici; 1 day protectant): D; SEPTTR 3DC disease control rating, LV activity at 125.1 g/H (Zymoseptoria tritici; 3 day curative): B (≤ 80); PUCCRT 1DP disease control rating, LV activity at 125.1 g/H (Puccinia triticina; 1 day protectant): B (≤ 80); PUCCRT 3DC disease control rating, LV activity at 125.1 g/H (Puccinia triticina; 3 day curative): A (> 80)
16 | COc1ccnc(C(=O)N[C@@H](C)C(=O)O[C@@H](C)[C@H](Oc2cccc(Cl)c2)C(C)C)c1OCOC(=O)C(C)C [Cmpd 571] | – | – | – | – | B (≤ 80) | A (> 80) | A (> 80) | A (> 80) | –
17 | COc1ccnc(C(=O)NCC(=O)OC(C)C(Oc2ccccc2)C(C)C)c1OCOC(C)=O (stereo not drawn) [Cmpd 862] | – | – | – | – | – | – | – | – | SEPTTR 1DP disease control rating, LV activity at 125.1 g/H (Zymoseptoria tritici; 1 day protectant): D; SEPTTR 3DC disease control rating, LV activity at 125.1 g/H (Zymoseptoria tritici; 3 day curative): D; PUCCRT 1DP disease control rating, LV activity at 125.1 g/H (Puccinia triticina; 1 day protectant): A (> 80); PUCCRT 3DC disease control rating, LV activity at 125.1 g/H (Puccinia triticina; 3 day curative): A (> 80)
18 | Cc1ccc(O[C@H](CC(C)C)[C@H](C)OC(=O)[C@H](C)NC(=O)c2ncccc2O)c(Cl)c1 [Cmpd 1038] | – | – | – | – | – | – | – | – | HV activity at 100 ppm SEPTTR 1DP (disease control rating) (Zymoseptoria tritici; HV application, 100 ppm, 1 Day Protectant, wheat leaf blotch): D; HV activity at 100 ppm SEPTTR 3DC (disease control rating) (Zymoseptoria tritici; HV application, 100 ppm, 3 Day Curative, wheat leaf blotch): B (≤ 80); HV activity at 100 ppm PUCCRT 1DP (disease control rating) (Puccinia triticina; HV application, 100 ppm, 1 Day Protectant, wheat brown rust): A (> 80); HV activity at 100 ppm PUCCRT 3DC (disease control rating) (Puccinia triticina; HV application, 100 ppm, 3 Day Curative, wheat brown rust): B (≤ 80)
19 | CCCO[C@@H](C(C)C)[C@H](C)OC(=O)[C@H](C)NC(=O)c1nccc(OC)c1OC(C)=O [Cmpd 855] | – | – | – | – | – | – | – | – | SEPTTR 1DP disease control rating, LV activity at 125.1 g/H (Zymoseptoria tritici; 1 day protectant): D; SEPTTR 3DC disease control rating, LV activity at 125.1 g/H (Zymoseptoria tritici; 3 day curative): D; PUCCRT 1DP disease control rating, LV activity at 125.1 g/H (Puccinia triticina; 1 day protectant): B (≤ 80); PUCCRT 3DC disease control rating, LV activity at 125.1 g/H (Puccinia triticina; 3 day curative): B (≤ 80)
20 | CC[C@H](Cc1ccc(F)cc1)[C@@H](Oc1ccccc1)[C@H](C)OC(=O)[C@H](C)NC(=O)c1nccc(OC)c1OC(=O)C(C)C [Cmpd 473] | – | – | – | – | B (≤ 80) | B (≤ 80) | A (> 80) | D | –
